pIC50: −log10 of the molar value. Entries after “also recorded” stand apart in the source; their conditions may differ. Where two headings read alike, the source gives them in different places.
Key:
[1] = then 24 hours later MK-5108 orally twice per day over 2 days; cited from earlier work
human Aurora A = human Aurora A (Homo sapiens (Human), UniProt O14965); assay: Measurement of Aurora A inhibitory activity (IMAP fluorescence polarization kinase assay); format: biochemical; conditions: ATP 5 μM, 25° C., 50 minutes
Sequence of human Aurora A (O14965 whole entry): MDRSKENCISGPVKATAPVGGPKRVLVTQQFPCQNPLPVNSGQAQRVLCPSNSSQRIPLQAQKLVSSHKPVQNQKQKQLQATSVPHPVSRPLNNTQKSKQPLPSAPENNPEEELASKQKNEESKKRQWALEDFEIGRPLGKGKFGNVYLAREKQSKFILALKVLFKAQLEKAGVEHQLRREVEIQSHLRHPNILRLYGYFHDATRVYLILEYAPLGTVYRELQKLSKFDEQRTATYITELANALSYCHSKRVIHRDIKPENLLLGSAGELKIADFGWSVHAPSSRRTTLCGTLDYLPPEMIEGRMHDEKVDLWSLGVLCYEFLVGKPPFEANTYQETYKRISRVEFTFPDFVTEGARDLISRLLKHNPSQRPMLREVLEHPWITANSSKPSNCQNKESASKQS
Description: (§1) The inhibitory activities of a test compound against Aurora A and Aurora B were measured according to the following method.
Complementary DNA of human Aurora A was fused with a histidine tag at the amino terminal, inserted into an expression vector and highly expressed in Escherichia coli BL21-CodonPlus (DE3)-RIL strain. After Escherichia coli was recovered and lysed, human Aurora A protein fused with a histidine tag was allowed to bind to a nickel chelate column and eluted by imidazole from the column. An active fraction was desalted by a desalting column to obtain purified enzyme.
In measuring inhibitory activity of the compound, first, the test compound was serially diluted by dimethylsulfoxide (DMSO). […] To the mixture, IMAP (registered trade mark) Progressive Binding Reagent diluted 500× with IMAP (registered trade mark) Progressive Binding Buffer A (manufactured by Molecular Devices) was added to terminate the kinase reaction. […] Based on the obtained fluorescence polarization degree, the amount of phosphorylation reaction was obtained.

[2] = system: human-derived lung cancer cell strain NCI-H460 (H460); assay: Schedule of administration in combination with paclitaxel, NCI-H460 subcutaneous graft; format: in vivo
Description: The study was performed according to the method in Example 1. Cells (1×10^7) of human-derived lung cancer cell strain NCI-H460 (H460) were subcutaneously grafted to right abdomens of nude mice. […] Group 1 was defined as a control group, Group 2 and 3 were defined as a paclitaxel single administration group and Compound 1 single administration group, respectively. Group 4 and 5 were defined as an administration group in combination with paclitaxel and Compound 1. Paclitaxel was intravenously administered in a dose of 60 mg/kg twice, i.e., day 1 and day 8 (Group 2, 4 and 5). In Group 3 and 5, Compound 1 was orally administered twice per day in a dose of 60 mg/kg, for 4 days from the next day of paclitaxel administration and for 4 days from day 9 of paclitaxel administration. In Group 4, Compound 1 was orally administered twice per day in a dose of 60 mg/kg from the next day of paclitaxel administration for 2 days and from day 9 for 2 days. In Group 3, 4 and 5, the dose per day of Compound 1 was 120 mg/kg/day. […]
Furthermore, the body weights of mice were measured with time and a body weight change rate (BWC) was computationally obtained according to the following expression. […]

[3] = system: human-derived uterus cancer cell strain HeLa-luc; conditions: for number of CR cases: 5 rats
Source text: Cells (1×10^7) of human-derived uterus cancer cell strain HeLa-luc (manufactured by PerkinElmer Co., Ltd.) having a luciferase gene introduced therein were subcutaneously grafted to the right abdomens of nude rats. At the time the volume of a tumor developed from grafted cells reached about 200 mm^3, the rats were divided into groups each consisting of 5 rats according to stratified randomization such that each group had almost the same tumor volume. […] To Group 2 and 3, paclitaxel was administered and, on the next day, Compound 1 (30 mg/kg) was orally administered twice per day for one day or 4 days (sequential administration, see FIG. 1 (A), Sequential treatment). To the rats of Group 4 and 5, paclitaxel was administered and, on the same day, Compound 1 (30 mg/kg) was orally administered twice per day for 2 days or 4 days (concurrent administration, see FIG. 1 (B), Concurrent treatment). Compound 1 was suspended or dissolved in 0.5% (w/v) hydroxypropyl methyl cellulose (HPMC). Paclitaxel was dissolved in Cremophor EL and anhydrous ethanol, diluted with physiological saline so as to obtain a predetermined concentration and put in use.
The presence or absence of a therapeutic effect was determined by measuring the major axis and minor axis of a tumor with time and obtaining a tumor volume (TV), relative tumor volume (RTV) and T/C (%) value (average relative tumor volume ratio of the treatment group to the control group) on day 10 after initiation of administration according to the following expressions. Tumor volume (TV)={(major axis)×(minor axis)^2}/2 Relative tumor volume (RTVn) on measurement day (n)=TVn/TV1 T/C(%)={(average RTVn of treatment group)/(average RTVn of control group)}×100
TV1 represents tumor volume at the administration initiation time
Furthermore, an individual in which a tumor disappeared was specified as CR (complete remission/complete response) and the number of cases was obtained.

[4] = system: human-derived lung cancer cell strain NCI-H460 (H460); assay: Schedule of administration in combination with docetaxel (Example 2 (2)); format: in vivo, nude mice
Description: The study was performed according to the method in Example 1, except that docetaxel was used in place of paclitaxel. Furthermore, administration of Compound 1 was initiated from the administration day of docetaxel. Group 1 was defined as a control group. Docetaxel was dissolved in anhydrous ethanol and Tween 80 and thereafter diluted with 5% glucose injection liquid and intravenously administered in a dose of 30 mg/kg twice, i.e., on day 1 and day 8 (Group 2 and 4). In Group 3 and 4, Compound 1 was orally administered twice per day in a dose of 60 mg/kg, from the administration day of docetaxel for 4 days and from day 8 of docetaxel administration for 4 days.
In Group 3 and 4, the dose of Compound 1 per day was 120 mg/kg/day. Note that, in FIG. 2 (B), Group 1 is represented by Control, Group 2 by Docetaxel alone, Group 3 by Compound 1 alone and Group 4 by Combo (4 days).

human Aurora B = human Aurora B (Homo sapiens (Human), UniProt Q96GD4); assay: Measurement of Aurora B kinase activity; format: biochemical; conditions: ATP 40 μM, 60 minutes
Sequence of human Aurora B (Q96GD4 whole entry): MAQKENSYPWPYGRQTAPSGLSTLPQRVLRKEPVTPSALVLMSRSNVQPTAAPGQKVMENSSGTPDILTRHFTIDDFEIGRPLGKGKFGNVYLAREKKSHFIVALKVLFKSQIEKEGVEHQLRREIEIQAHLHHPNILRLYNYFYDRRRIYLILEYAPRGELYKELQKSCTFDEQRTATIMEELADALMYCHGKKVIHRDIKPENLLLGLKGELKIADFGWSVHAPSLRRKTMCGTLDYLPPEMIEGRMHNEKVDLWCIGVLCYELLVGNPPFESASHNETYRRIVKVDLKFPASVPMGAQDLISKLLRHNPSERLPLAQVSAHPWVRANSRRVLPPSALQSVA
Sequence of human Aurora B (Q9NQS7 803-916 partner): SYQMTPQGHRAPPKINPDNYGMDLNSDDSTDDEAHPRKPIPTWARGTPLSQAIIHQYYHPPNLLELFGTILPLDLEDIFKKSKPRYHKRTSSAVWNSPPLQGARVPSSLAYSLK
Description: as §1
The concentration of the compound at which 50% of the phosphorylation reaction was suppressed was defined as IC50 value (nM).

[5] = Evaluation of oral absorption property; format: in vivo, BALE/cA mice; conditions: oral administration in 0.5% HPMC, plasma 0.5-6 hours, LCMS
Description: A test compound was suspended or dissolved in 0.5% HPMC and orally administered to BALE/cA mice. At the time points of 0.5, 1, 2, 4 and 6 hours after oral administration, blood was sampled from the back of the eye to obtain blood plasma. The concentration of the compound in the obtained blood plasma was measured by LCMS and evaluated for oral absorption property.

Structure (SMILES)	antitumor effect in combination with docetaxel [1]	pIC50 (human Aurora A)	toxicity / side effect ([2]; Group 4 and 5: paclitaxel 60 mg/kg iv plus Compound 1 60 mg/kg po bid for 2 or 4 days per cycle)	tumor volume, Combo (4 days) versus Combo (2 days) ([2]; paclitaxel 60 mg/kg iv day 1 and 8, Compound 1 60 mg/kg po bid for 4 days (Group 5) vs 2 days (Group 4) per 7-day cycle)	number of CR cases ([3]; Group 2: paclitaxel 10 mg/kg iv, from next day Compound 1 30 mg/kg po twice per day for one day (sequential))	number of CR cases ([3]; Group 3: paclitaxel 10 mg/kg iv, from next day Compound 1 30 mg/kg po twice per day for 4 days (sequential))	toxicity / side effect ([3]; Group 3 and 5: paclitaxel 10 mg/kg iv plus Compound 1 30 mg/kg po bid for 4 days)	number of CR cases ([3]; Group 4: paclitaxel 10 mg/kg iv, from same day Compound 1 30 mg/kg po twice per day for 2 days (concurrent))	number of CR cases ([3]; Group 5: paclitaxel 10 mg/kg iv, from same day Compound 1 30 mg/kg po twice per day for 4 days (concurrent))	toxicity / side effect ([4]; Group 4: docetaxel 30 mg/kg iv plus Compound 1 60 mg/kg po bid for 4 days per cycle)	antitumor effect (tumor volume), Combo (4 days) ([4]; docetaxel 30 mg/kg iv day 1 and 8, Compound 1 60 mg/kg po bid for 4 days from day 1 and day 8)	pIC50 (human Aurora B)	oral absorption property (concentration in blood plasma) [5]
O=C(O)[C@]1(Cc2cccc(Nc3nccs3)n2)CC[C@@H](Oc2cccc(Cl)c2F)CC1 [MK-5108]	enhancement of an antitumor effect is confirmed	–	–	–	–	–	–	–	–	–	–	–	–
Cc1cc(Nc2nc(CC3(C(=O)O)CCN(C(=O)c4cccc(Cl)c4Cl)CC3)ccc2F)n[nH]1 [Production Example 1, 1-(2,3-dichlorobenzoyl)-4-((5-fluoro-6-(5-methyl-1H-pyrazol-3-ylamino)pyridin-2-yl)methyl)piperidine-4-carboxylic acid]	–	9.40	no significant toxicity such as death was observed	smaller than that of Group 4; also recorded: stronger antitumor enhancing effect	no CR cases	2	no serious toxicity such as death was observed	one	4	no significant toxicity such as death was observed	an antitumor effect is exerted	6.85	satisfactory oral absorption property

From patent publication US9012475B2, “Method for enhancing anti-tumor effect of a microtubule-targeting drug, and a method for treatment of tumor” (Taiho Pharmaceutical Co., Ltd., priority 2013, dated 2015)
